According to patent US20250049829A1, “NOVEL T[…] TARGETING THE H-RAS ISOFORM WITH G12D MUTATION INVOLVED IN CANCER FORMATION” (ISTANBUL MEDIPOL UNIVERSITESI, priority 2021, published 2025):

Molecular target: T1, interaction of H-RASG12D with RAF (Homo sapiens, UniProt P01112, G12D)
T1 construct: expressed in transfected cells; host or cells: HEK-293T
Assay: Active RAS pull-down (GST-Raf-RBD) and western blot in HRASG12D-overexpressing HEK-293T cells
Type: cell-based
Details: for active RAS levels: 293T-HRASG12D cells, pull-down with RAF, western blot
Experimental: The candidate molecules determined as a result of molecular dynamics studies were applied to HEK-293T cells at different concentrations in order to determine the cytotoxic and optimum doses for the cells. Optimum dose ranges were determined for each molecule. HEK-293T/HRASG12D cells were treated with Cerubidine […], one of these candidate molecules, and active RAS was examined due to the interaction of RAS protein in cells with RAF. In experiments carried out on this molecule; lysate was collected at different time points from cells treated with non-toxic concentrations of Cerubidine. Active RAS precipitation (Pull Down) and subsequent Western-blot experiments performed on these lysates were used to investigate the effect of Cerubidine molecule on active RAS at different time points for 12 hours in terms of G12D mutation specificity.
In the said study, HEK-293T cells with high expression of RAS proteins carrying the G12D mutation were used to examine the effect of candidate ligands on the interaction of H-RASG12D with RAF. First of all, an “Active Ras Pull-Down and Detection Kit (Thermo)” was provided to detect the interaction of the active RAS protein with RAF, and therefore the active RAS proteins involved in this interaction. Since the working principle of the kit is based on the precipitation of RAS proteins interacting with RAF, immunoprecipitation experiments were performed accordingly, since the use of the kit within the scope of this experiment was suitable for the target.
The isolated proteins were first treated with GTPyS and GDP, and then bound to the glutathione-containing column with GST-Raf-RBD. Then, the presence of the RAS protein was examined by western blot experiment in the samples collected by elution from the column.
Then, established 293T-HRAS^G12D cells were treated with Cerubudine, one of the candidate molecules, at different doses (non-cytotoxic), and active RAS proteins were precipitated in the presence of RAF in the lysates collected from cells, following the kit protocol validated in FIG. 5. Then, active RAS, HRAS and RAS^G12D levels were analyzed by western blot at different time points.
Here, HRASG12D overexpressed cell lines (HEK-293T/HRAS^G12D) were treated with increasing doses of Cerubudine and lysate was obtained for protein isolation at different time points (0.5 h, 1 h, 3 h, 12 h). Active RAS precipitation was performed using isolated proteins and RAS, RASG12D and HRAS protein levels were examined by Western blot. Within the scope of the results obtained, there was a decrease in active RAS protein levels depending on the dose increase, especially in the 12th hour treated samples. Cerubidine treatment in cell lines overexpressing HRASG12D reduced the interaction of active RAS protein with RAF.

COc1cccc2c1C(=O)c1c(O)c3c(c(O)c1C2=O)C[C@@](O)(C(C)=O)C[C@@H]3O[C@H]1C[C@H](N)[C@H](O)[C@H](C)O1 [Cerubidine, cerubidine]
reduction in G12D mutant HRAS versus wild type HRAS levels (5 μM and 10 μM, western blot for active RAS, HRAS and RASG12D): not wild type HRAS levels
active RAS levels (5 μM): significant decrease
active RAS levels (10 μM): significant decrease
effect on active RAS levels, dose and time of strongest effect (10 μM, at the end of 12 hours): most pronounced effect
interaction of active RAS protein with RAF (cell lines overexpressing HRASG12D): reduced
active RAS protein levels depending on the dose increase (increasing doses, 12th hour treated samples, HEK-293T/HRASG12D): decrease
mutant specificity of decrease in active RAS levels (G12D specific antibody) (membrane with G12D specific antibody): mutant specific
